Data on 17 compounds can be found in patent US20210238225A1, “PEPTIDOMIMETIC INHIBITORS OF THE PEPTIDYL-PROLYL CIS/TRANS ISOMERASE (PIN1)” (DANA-FARBER CANCER INSTITUTE, INC., priority 2018, published 2021).

Read-outs that look alike come from different tables or passages of the source. Non-standard residues stand in square brackets, D forms with d. Residues, ends and D or L forms follow the SMILES beside them. *: point of attachment. Phe(4-tBu) = CC(C)(C)c1ccc(C[C@H](N)C(=O)O)cc1; 2Nal = N[C@@H](Cc1ccc2ccccc2c1)C(=O)O; Met(O2) = CS(=O)(=O)CC[C@H](N)C(=O)O; X2 = C[C@H]1NC(=O)N[C@H]1CCCCCC(=O)*; NH(4-Me-benzyl) = Cc1ccc(CN*)cc1; β3hF = N[C@H](CC(=O)O)Cc1ccccc1; Cit = NC(=O)NCCC[C@H](N)C(=O)O; Pip = O=C(O)[C@@H]1CCCCN1; βNA = c1ccc2cc(N*)ccc2c1; Fluoroacetyl = O=C(CF)*; X5 = Cc1ccc(CN(C)*)cc1; Acryloyl = C=CC(=O)*; X4 = CN(c1ccccc1)*; ClAc = O=C(CCl)*; X1 = O=C(C1CO1)*

The term Ki denotes a measure of affinity in units of concentration, obtained from inhibition or displacement.

The assay has as its target Pin1 (GST-Pin1) (Homo sapiens, UniProt Q13526). The experiment in a line: Fluorescence polarization (FP) assay, binding to Pin1. The following applies: competition with fluorescein-labeled peptide probe, 12 hours pre-incubation at 4° C., Kenakin Ki equation. (In general: Polarisation of emitted light reports the rotation of a fluorescent probe.)

Chain of Pin1 (GST-Pin1) (Q13526 whole entry): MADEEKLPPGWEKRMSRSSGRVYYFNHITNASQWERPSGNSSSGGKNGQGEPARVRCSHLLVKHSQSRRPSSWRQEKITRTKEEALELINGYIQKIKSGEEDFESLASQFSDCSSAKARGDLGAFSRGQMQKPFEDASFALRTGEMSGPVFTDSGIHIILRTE

For the compound `NC(=O)[C@H](CO)NC(=O)[C@H](Cc1ccc2ccccc2c1)NC(=O)[C@@H]1CCCCN1C(=O)[C@H](CCC(=O)O)NC(=O)CCl` [Compound 2b-12, (S)-5-((S)-2-(((S)-1-(((S)-1-Amino-3-hydroxy-1-oxopropan-2-yl)amino)-3-(naphthalen-2-yl)-1-oxopropan-2-yl)carbamoyl)piperidin-1-yl)-4-(2-chloroacetamido)-5-oxopentanoic acid] (ClAc-E[Pip][2Nal]S-NH2), for the setting “read-out: Ki, μM (FP Assay)”, the Ki amounted to 0.23 µM.

`CC(C)(C)c1ccc(C[C@H](NC(=O)[C@@H]2CCCCN2C(=O)[C@H](CCC(=O)O)NC(=O)CCl)C(=O)N[C@@H](CCCNC(=N)N)C(N)=O)cc1` [Compound 2b-14, (S)-5-((S)-2-(((S)-1-(((S)-1-Amino-5-guanidino-1-oxopentan-2-yl)amino)-3-(4-(tert-butyl)phenyl)-1-oxopropan-2-yl)carbamoyl)piperidin-1-yl)-4-(2-chloroacetamido)-5-oxopentanoic acid] (ClAc-E[Pip][Phe(4-tBu)]R-NH2): the Ki (read-out: Ki, μM (FP Assay)) stood at 0.19 µM. The same measure, in the same setting: in the case of `N=C(N)NCCC[C@H](NC(=O)C[C@H](Cc1ccccc1)NC(=O)[C@@H]1CCCCN1C(=O)[C@H](CCC(=O)O)NC(=O)CCl)C(N)=O` [Compound 2b-15, (S)-5-((S)-2-(((S)-4-(((S)-1-Amino-5-guanidino-1-oxopentan-2-yl)amino)-4-oxo-1-phenylbutan-2-yl)carbamoyl)piperidin-1-yl)-4-(2-chloroacetamido)-5-oxopentanoic acid] (ClAc-E[Pip][β3hF]R-NH2) it was over 10 µM; in that of `C=CC(=O)N[C@@H](CCC(=O)O)C(=O)N1CCCC[C@H]1C(=O)N[C@@H](Cc1ccc2ccccc2c1)C(=O)N[C@@H](CCCNC(=N)N)C(N)=O` [Compound 2b-16, (S)-4-Acrylamido-5-((S)-2-(((S)-1-(((S)-1-amino-5-guanidino-1-oxopentan-2-yl)amino)-3-(naphthalen-2-yl)-1-oxopropan-2-yl)carbamoyl)piperidin-1-yl)-5-oxopentanoic acid] (Acryloyl-E[Pip][2Nal]R-NH2), over 10 µM. Still for that read-out and setting: with `C[C@H](NC(=O)[C@H](C)NC(=O)[C@H](CCCNC(N)=O)NC(=O)[C@H](Cc1c[nH]c2ccccc12)NC(=O)[C@@H]1CCCCN1C(=O)[C@H](CCC(=O)O)NC(=O)CCl)C(=O)N[C@@H](CCCCNC(=O)CCCCC[C@@H]1NC(=O)N[C@@H]1C)C(N)=O` [Compound 2c-1, (S)-5-((S)-2-(((2S,5S,8S,11S)-14-Carbamoyl-1-(1H-indol-3-yl)-8,11-dimethyl-25-((4S,5R)-5-methyl-2-oxoimidazolidin-4-yl)-3,6,9,12,20-pentaoxo-5-(3-ureidopropyl)-4,7,10,13,19-pentaazapentacosan-2-yl)carbamoyl)piperidin-1-yl)-4-(2-chloroacetamido)-5-oxopentanoic acid] (ClAc-E[Pip]W[Cit]AAK(X2)-NH2) the figure was 0.04 µM.

Compound `C[C@H]1NC(=O)N[C@H]1CCCCCC(=O)NCCCC[C@H](NC(=O)[C@H](CCCNC(N)=O)NC(=O)[C@H](Cc1c[nH]c2ccccc12)NC(=O)[C@@H]1CCCCN1C(=O)[C@H](CCC(=O)O)NC(=O)CCl)C(N)=O` [Compound 2c-2, (S)-5-((S)-2-(((S)-1-(((S)-1-(((S)-1-Amino-6-(6-((4S,5R)-5-methyl-2-oxoimidazolidin-4-yl)hexanamido)-1-oxohexan-2-yl)amino)-1-oxo-5-ureidopentan-2-yl)amino)-3-(1H-indol-3-yl)-1-oxopropan-2-yl)carbamoyl)piperidin-1-yl)-4-(2-chloroacetamido)-5-oxopentanoic acid] (ClAc-E[Pip]W[Cit]K(X2)-NH2) displayed a Ki (Ki, μM (FP Assay)) of 0.03 µM. On to `COC(=O)CC[C@H](NC(=O)C1CO1)C(=O)N1CCCC[C@H]1C(=O)N[C@@H](Cc1c[nH]c2ccccc12)C(=O)N[C@@H](CCCNC(N)=O)C(N)=O` (stereo partly drawn) [Compound 3, Methyl (4S)-5-((S)-2-(((S)-1-(((S)-1-amino-1-oxo-5-ureidopentan-2-yl)amino)-3-(1H-indol-3-yl)-1-oxopropan-2-yl)carbamoyl)piperidin-1-yl)-4-(oxirane-2-carboxamido)-5-oxopentanoate] (X1-E(OMe)[Pip]W[Cit]-NH2), for which the Ki (read-out: Ki, μM (FP Assay)) came to 4.17 µM. The same measure, in the same setting: with `NC(=O)NCCC[C@H](NC(=O)[C@H](Cc1ccc2ccccc2c1)NC(=O)[C@@H]1CCCCN1C(=O)[C@H](CCC(=O)O)N1C(=O)C=CC1=O)C(N)=O` [Compound 5, (S)-5-((S)-2-(((S)-1-(((S)-1-Amino-1-oxo-5-ureidopentan-2-yl)amino)-3-(naphthalen-2-yl)-1-oxopropan-2-yl)carbamoyl)piperidin-1-yl)-4-(2,5-dioxo-2,5-dihydro-1H-pyrrol-1-yl)-5-oxopentanoic acid] the figure was over 10 µM. Same read-out and setting: with `NC(=O)NCCC[C@H](NC(=O)[C@H](Cc1ccc2ccccc2c1)NC(=O)[C@@H]1CCCCN1C(=O)C[C@H](CCC(=O)O)N1C(=O)C=CC1=O)C(N)=O` [Compound 5-1, (S)-6-((S)-2-(((S)-1-(((S)-1-Amino-1-oxo-5-ureidopentan-2-yl)amino)-3-(naphthalen-2-yl)-1-oxopropan-2-yl)carbamoyl)piperidin-1-yl)-4-(2,5-dioxo-2,5-dihydro-1H-pyrrol-1-yl)-6-oxohexanoic acid] the figure was 0.61 µM. For the setting “Ki, μM (FP Assay)”, `NC(=O)NCCC[C@H](NC(=O)[C@H](Cc1c[nH]c2ccccc12)NC(=O)[C@@H]1CCCCN1C(=O)[C@H](CCC(=O)O)NC(=O)CF)C(N)=O` [Compound 6b, (S)-5-((S)-2-(((S)-1-(((S)-1-Amino-1-oxo-5-ureidopentan-2-yl)amino)-3-(1H-indol-3-yl)-1-oxopropan-2-yl)carbamoyl)piperidin-1-yl)-4-(2-fluoroacetamido)-5-oxopentanoic acid] (Fluoroacetyl-E[Pip]W[Cit]-NH2) registered a Ki of over 10 µM.

Compound `N=C(N)NCCC[C@H](NC(=O)[C@H](Cc1ccc2ccccc2c1)NC(=O)[C@@H]1CCCCN1C(=O)[C@H](CCC(=O)O)NC(=O)CF)C(N)=O` [Compound 6b-1, (S)-5-((S)-2-(((S)-1-(((S)-1-Amino-5-guanidino-1-oxopentan-2-yl)amino)-3-(naphthalen-2-yl)-1-oxopropan-2-yl)carbamoyl)piperidin-1-yl)-4-(2-fluoroacetamido)-5-oxopentanoic acid] (Fluoroacetyl-E[Pip][2Nal]R-NH2) showed a Ki (Ki, μM (FP Assay)) of over 10 µM. On the same count and under the same terms, in the case of `COC(=O)CC[C@H](NC(=O)CCl)C(=O)N1CCCC[C@H]1C(=O)N[C@@H](Cc1c[nH]c2ccccc12)C(=O)N[C@@H](CCCNC(N)=O)C(=O)Nc1ccc2ccccc2c1` [Compound 11-8, Methyl (S)-5-((S)-2-(((S)-3-(1H-indol-3-yl)-1-(((S)-1-(naphthalen-2-ylamino)-1-oxo-5-ureidopentan-2-yl)amino)-1-oxopropan-2-yl)carbamoyl)piperidin-1-yl)-4-(2-chloroacetamido)-5-oxopentanoate] (ClAc-E(OMe)[Pip]W[Cit]-βNA) it was 0.15 µM. Turning to `Cc1ccc(CN(C)C(=O)[C@H](CCCNC(N)=O)NC(=O)[C@H](Cc2c[nH]c3ccccc23)NC(=O)[C@@H]2CCCCN2C(=O)[C@H](CCC(=O)O)NC(=O)CCl)cc1` [Compound 11-9, (S)-5-((S)-2-(((S)-3-(1H-Indol-3-yl)-1-(((S)-1-(methyl(4-methylbenzyl)amino)-1-oxo-5-ureidopentan-2-yl)amino)-1-oxopropan-2-yl)carbamoyl)piperidin-1-yl)-4-(2-chloroacetamido)-5-oxopentanoic acid] (ClAc-E[Pip]W[Cit]-X5), the Ki (read-out: Ki, μM (FP Assay)) was determined as 0.31 µM. On the same count and under the same terms, with `NC(=O)NCCC[C@H](NC(=O)[C@H](Cc1c[nH]c2ccccc12)NC(=O)[C@@H]1CCCCN1C(=O)[C@H](CCC(=O)O)NC(=O)CCl)C(=O)Nc1ccc2ccccc2c1` [Compound 11-10, (S)-5-((S)-2-(((S)-3-(1H-Indol-3-yl)-1-(((S)-1-(naphthalen-2-ylamino)-1-oxo-5-ureidopentan-2-yl)amino)-1-oxopropan-2-yl)carbamoyl)piperidin-1-yl)-4-(2-chloroacetamido)-5-oxopentanoic acid] (ClAc-E[Pip]W[Cit]-βNA) the figure was 0.11 µM; with `Cc1ccc(CNC(=O)[C@H](CCCNC(N)=O)NC(=O)[C@H](Cc2c[nH]c3ccccc23)NC(=O)[C@@H]2CCCCN2C(=O)[C@H](CCS(C)(=O)=O)NC(=O)CCl)cc1` [Compound 11-11, (S)—N—((S)-3-(1H-Indol-3-yl)-1-(((S)-1-((4-methylbenzyl)amino)-1-oxo-5-ureidopentan-2-yl)amino)-1-oxopropan-2-yl)-1-((S)-2-(2-chloroacetamido)-4-(methylsulfonyl)butanoyl)piperidine-2-carboxamide] (ClAc-[Met(O2)][Pip]W[Cit]-{NH(4-Me-benzyl)}), 0.17 µM. As for `COC(=O)CC[C@H](NC(=O)C1CO1)C(=O)N1CCCC[C@H]1C(=O)N[C@@H](Cc1c[nH]c2ccccc12)C(=O)N[C@@H](CCCNC(N)=O)C(=O)NCc1ccc(C)cc1` (stereo partly drawn) [Compound 11-12, Methyl (4S)-5-((S)-2-(((S)-3-(1H-indol-3-yl)-1-(((S)-1-((4-methylbenzyl)amino)-1-oxo-5-ureido-pentan-2-yl)amino)-1-oxopropan-2-yl)carbamoyl)piperidin-1-yl)-4-(oxirane-2-carboxamido)-5-oxopentanoate] (X1-E(OMe)[Pip]W[Cit]-{NH(4-Me-benzyl)}), the Ki (read-out: Ki, μM (FP Assay)) was over 10 µM. As to `COC(=O)CC[C@H](NC(=O)CCl)C(=O)N1CCCC[C@H]1C(=O)N[C@@H](Cc1c[nH]c2ccccc12)C(=O)N[C@@H](CCCNC(N)=O)C(=O)N(C)c1ccccc1` [Compound 11-15, Methyl (S)-5-((S)-2-(((S)-3-(1H-indol-3-yl)-1-(((S)-1-(methyl(phenyl)amino)-1-oxo-5-ureidopentan-2-yl)amino)-1-oxopropan-2-yl)carbamoyl)piperidin-1-yl)-4-(2-chloroacetamido)-5-oxopentanoate] (ClAc-E(OMe)[Pip]W[Cit]-X4), affinity (Ki, μM (FP Assay)) was put at a Ki of 0.15 µM.
